Measurements taken from patent US4483867A, “Antifibrinolytically active derivatives of tranexamic acid” (KabiVitrum AB, priority 1981, dated 1984).
Where a name gives a salt, the structure may show the parent alone.

Legend:
[1] = In vitro test - hydrolysis in human plasma (half life); format: in vitro ADME; conditions: 37° C., 2.3·10^-3 M, trans form, hydrochloride salt, HPLC, UV 210 nm
From the text: (§1) In the biological tests described in sections A, B and C below, the test compounds were used in trans form and in the form of hydrochloride salt. The test results given in Tables 1 and 2 are average values.
(§2) The compounds of the present invention, which are esters of tranexamic acid, are converted to tranexamic acid in vivo either during the absorption through the gastro-intestinal wall or by enzymes present in the blood. In order to test the stability of compounds of the invention the half life in human plasma of a number of compounds of the invention was compared to the half life of the same ester in a phosphate buffer of the same pH. The half life, that is, the time within which the amount of unhydrolysed test compound is reduced by 50%, was calculated from the decrease of intact test compound with time. This decrease of intact test compound was monitored by UV-detection at 210 nm using high performance liquid chromatography (HPLC) in the reversed phase mode with mixtures of methanol and phosphate buffer as eluents. The stability in plasma was studied by addition of […] of plasma thermostated to 37° C. The concentration of the test compound in plasma amounted to 2.3·10^-3 M. The plasma samples were injected directly into the column after filtration. The half life in buffer solution were determined in the same way except that no filtration was needed.

[2] = test system: fibrinolytic activity induced by porcine tissue activator; assay: Antifibrinolytic activity in chandler loop (inhibition of clot lysis induced by porcine tissue activator); format: biochemical, human blood; porcine tissue activator; conditions: for Percent inhibition of fibrinolytic activity induced by porcine tissue activator: 1 micromole/liter, human blood, 20 PU/ml porcine tissue activator, six hours, mean
Method: as §1
The antifibrinolytic properties of tranexamic acid and a number of compounds of the invention were tested in an artificial circulating blood system, the chandler loop (Chandler, A. B., In vitro thrombolytic coagulation of blood. A method for producing a thrombus. Lab.Invest. 7, 110, 1958.) Human blood was mixed with ^125 I-labelled fibrinogen, divided into 1.5 ml portions and filled into plastic tubings. After recalcification the loops were rotated for 24 hours during which ^125 I-labelled clots were formed. Fibrinolysis as measured with release of ^125 I-labelled fibrin degradation products from the clot, was initiated by adding 20 PU/ml of porcine tissue activator to the loops. Clot lysis was followed during six hours and the cumulative release of ^125 I FDP was plotted v.s. time of lysis. […] The effect on the clot lysis of compounds of the invention was tested in this system and compared to the inhibitory effect of tranexamic acid. No significant difference (p>0.05) between the antifibrinolytic effect of tranexamic acid and the tested compounds of the invention was found in this test system.

[3] = In vitro test - hydrolysis in phosphate buffer pH 7.5 (half life); format: physicochemical; conditions: trans form, hydrochloride salt, HPLC, UV 210 nm
From the text: as §1, §2

[4] = In vivo test - absorption in rats after oral administration (tranexamic acid recovered in urine); conditions: for Absorption after oral administration, in words: compared to tranexamic acid
Method: as §1
Rats were chosen to study the absorption after oral administration of compounds of the invention which are esters of tranexamic acid. Absorption of tranexamic acid itself is very poor in rats.
The determination of absorption in the rats was performed in the following way: Male rats in groups of three or four were given the test compound by gavage (1 mmol/kg-0.1 mmol/kg, 2 ml/kg). The urine was collected at the intervals 0-6, 6-24, 24-48 and 48-72 hours. At the end of each interval the cages were rinsed with 20 ml of distilled water, which also was collected and analysed. The urine sampls were then analysed for their content of tranexamic acid by a gaschromatographic method according to Wessman J., Stromberg S., Anal. Chem. 49 (1977) 369. The results are shown in table 1, where the total absorption is given as the molar amount of tranexamic acid which was recovered in the urine samples compared to the amount of administered test compound, also calculated as tranexamic acid.

[5] = normally, clinical use; cited from earlier work
[6] = large oral intake, about 3 to about 6 grams per 24 hours; cited from earlier work

half-life at 2300 µM [1] [min]	half-life at 2300 µM [3] [h]	Compound	Percent inhibition of fibrinolytic activity induced by porcine tissue activator [2] [%]	also measured
5	–	CC(C)(C)C(=O)OCOC(=O)[C@H]1CC[C@H](CN)CC1 [Example 1, pivaloyloxymethyl trans-4-aminomethylcyclohexanecarboxylate hydrochloride]	19.3 ± 4.3	–
1.5	90	CCOC(=O)OC(C)OC(=O)[C@H]1CC[C@H](CN)CC1 (stereo partly drawn) [Example 3, 1-(ethyloxycarbonyloxy)ethyl trans-4-aminomethylcyclohexanecarboxylate hydrochloride]	23.4 ± 5.1	–
–	–	CC(C)OC(=O)OC(C)OC(=O)[C@H]1CC[C@H](CN)CC1 (stereo partly drawn) [Example 4, 1-(isopropyloxycarbonyloxy)ethyl trans-4-aminomethylcyclohexanecarboxylate hydrochloride]	25.8 ± 5.5	Absorption after oral administration, in words [4]: absorbed to a very high degree
9	–	CC(=O)OC(C)OC(=O)[C@H]1CC[C@H](CN)CC1 (stereo partly drawn) [Example 5, 1-(acetyloxy) ethyl trans-4-aminomethylcyclohexanecarboxylate]	19.5 ± 4.7	–
0.5	–	CC(C)C(=O)OCOC(=O)[C@H]1CC[C@H](CN)CC1 [Example 6, isobutyryloxymethyl trans-4-aminomethylcyclohexanecarboxylate]	32.4 ± 5.3	–
–	–	CC(OC(=O)C(C)C)OC(=O)[C@H]1CC[C@H](CN)CC1 (stereo partly drawn) [Example 7, 1-(isobutyryloxy)ethyl trans-4-aminomethylcyclohexanecarboxylate]	23.8 ± 5.7	–
1.5	26	NC[C@H]1CC[C@H](C(=O)OCOC(=O)[C@H]2CC[C@H](CN)CC2)CC1 [Example 11, methandiol bis-(trans-4-aminomethylcyclohexanecarboxylate) dihydrochloride]	–	–
11	70	CC(OC(=O)[C@H]1CC[C@H](CN)CC1)OC(=O)[C@H]1CC[C@H](CN)CC1 [Example 13, 1,1-Ethandiol bis-(trans-4-aminomethylcyclohexanecarboxylate) dihydrochloride]	–	–
–	–	CN(C)C(=O)C(OC(=O)[C@H]1CC[C@H](CN)CC1)OC(=O)[C@H]1CC[C@H](CN)CC1 [Example 16, 2,2-dihydroxy-N,N-dimethylacetamide bis-(trans-4-aminomethylcyclohexanecarboxylate)]	32.2 ± 4.7	–
–	–	NC[C@H]1CC[C@H](C(=O)O)CC1 [Tranexamic acid, trans-4-aminomethylcyclohexanecarboxylic acid]	25.6 ± 3.9	Absorption after oral administration, in words [4]: very poor; dose excreted at 72 h ([4]; rat, po, male rats, by gavage, 1 mmol/kg-0.1 mmol/kg, 2 ml/kg, tranexamic acid recovered in urine 0-72 hours vs. amount administered, trans form, hydrochloride salt, read-out: Absorption Mole % (average values of four tests)): 11 ± 1.4%; Antifibrinolytic effect / inhibition of clot lysis, in words ([2]; chandler loop): clot lysis was inhibited in a dose dependent manner; Absorption of administered tranexamic acid, oral route [5]: 35-40%; Undesired side effects, in words [6]: causes in some patients undesired side effects in the gastro-intestinal tract
